Laboratory results: patent publication US11890279B2, “Quinolines that modulate SERCA and their use for treating disease” (Neurodon Corporation, priority 2020, dated 2024)

System: CA1 pyramidal neurons of PS1/APP mice
Experiment: Ca2+ imaging in brain slices of treated PS1/APP mice
Assay type: in vivo, mouse
Conditions: 10 mg/kg IP, 4 weeks, caffeine 10 mM, 60 sec
Excerpt: Mouse Model: PS1/APP mice (PS1M146V and APPSWE) (Howlett et al., Brain Res. 2004, 1017, 130-136) were used. Age-matched NTg controls were on the same background strain (C57bl6/J9).
Brain Slice Preparation: Mice were deeply anesthetized with halothane and rapidly decapitated. The brains were extracted rapidly and 300 or 400 μm-thick transverse hippocampal slices were cut with a vibrating microtome into ice-cold oxygenated artificial cerebrospinal fluid (aCSF) with the following composition (in mM): 125 NaCl, 2.5 KCl, 1.25 KH2PO4, 1.2 MgSO4, 2 CaCl2, 10 dextrose, and 25 NaHCO3.
Ca^2+ Imaging: Ca^2+ imaging within individual neurons was performed in brain slice preparations using a custom-made video-rate multiphoton-imaging system based on an upright Olympus BX51 microscope frame. […] Emitted fluorescence light was detected by a wide-field photomultiplier (Electron Tubes) to derive a video signal that was captured and analyzed by Video Savant 5.0 software (IO Industries). […] For clarity, results are expressed as inverse ratios so that increases in [Ca^2+] correspond to increasing ratios. The % change is calculated as [(F/ΔF)−1]×100, where F is the average resting fluorescence at baseline and ΔF is the decrease of fluorescence reflecting Ca release. Differences between drug- and saline-treated groups were assessed using two-way ANOVA and Scheffe post hoc analysis for significance (p<0.05). […]

Cc1ccc2cccc(NC(=O)c3ccc(OC(C)C)cc3)c2n1 [Compound A12, 4-Isopropoxy-N-(2-methylquinolin-8-yl)benzamide]
ER Ca^2+ signaling (RyR-Ca2+ response to caffeine): restores ER Ca^2+ signaling
